Assays:
MCF7 cells = assay: Live-cell TIRFM of SCABs before and after inhibiting contractility; assay type: cell-based, human; settings: 25 uM ROCK inhibitor
Text: (§1) The relationship between cortical contractility and membrane motility dynamics was further examined. Using live-cell Total Internal Reflection Fluorescence Microscopy (TIRFM), SCABs at the leading edge of MCF7 and T47D cells were imaged before and after inhibiting contractility using the ROCK inhibitor, Y-27632; the actin cytoskeleton was labeled with iRFP-Lifeact, and SCABs with MLC-mRuby2. […] In addition, the existence of SCABs, their contractile nature, and their suppressive effects were validated in two types of epithelial cells: MDCK canine kidney epithelial cells, and Caco-2 human intestinal epithelial cells (FIGS. 3c and 3d). […] ER is potentially enriching for SCABs by inducing the expression of actin regulators that promote SCAB formation.

T47D cells = assay: as above; assay type: cell-based, human; settings: 25 uM ROCK inhibitor
Text: as §1

[1] = test system: MDCK canine kidney epithelial cells; assay: Leading edge kymography before and after dissolving SCABs; assay type: cell-based; settings: 25 μM ROCK inhibitor, dissolution of SCABs
Text: as §1

[2] = test system: Caco-2 human intestinal epithelial cells; assay: as above; assay type: cell-based; settings: 25 μM ROCK inhibitor, dissolution of SCABs
Text: as §1

SMILES: C[C@@H](N)[C@H]1CC[C@H](C(=O)Nc2ccncc2)CC1 [Y-27632]
- SCABs (MCF7 cells): dissolution of SCABs
- MLC at the leading edge (MCF7 cells; MLC-mRuby2): loss of MLC
- protrusive activity (MCF7 cells; iRFP-Lifeact): rapid increase
- SCABs (T47D cells): dissolution of SCABs
- MLC at the leading edge (T47D cells; MLC-mRuby2): loss of MLC
- protrusive activity (T47D cells; iRFP-Lifeact): rapid increase
- motility dynamics of the leading edge [1]: dramatically increased
- motility dynamics of the leading edge ([1]; listed as ROCK inhibitor): increased
- motility dynamics of the leading edge [2]: dramatically increased
- motility dynamics of the leading edge ([2]; listed as ROCK inhibitor): increased
